In the NIST ThermoML archive (doi:10.1021/je700707y):
Several values for one entry are separate records, joined by “and”; a condition that tells them apart may be missing. Equal entries are not always repeated.

Experiments:
[1] = 101.33 kPa, Liquid, Vibrating tube method
[2] = wn = mass fraction of the nth substance listed; details: Liquid, Vibrating tube method, w2 = 0.001

CCCC[n+]1ccn(C)c1.O=S(=O)([N-]S(=O)(=O)C(F)(F)F)C(F)(F)F
[1]
Details	mass density
293.15 K	1442.7 kg/m3 and 1440.2 kg/m3
298.15 K	1437.9 kg/m3
303.15 K	1433.1 kg/m3 and 1430.7 kg/m3
308.15 K	1428.3 kg/m3
313.15 K	1423.5 kg/m3 and 1421.2 kg/m3
318.15 K	1418.8 kg/m3
323.15 K	1414 kg/m3 and 1411.8 kg/m3
328.15 K	1409.3 kg/m3
333.15 K	1404.5 kg/m3 and 1402.4 kg/m3
338.15 K	1399.7 kg/m3
343.15 K	1395 kg/m3 and 1393 kg/m3
353.15 K	1383.6 kg/m3
363.15 K	1374.3 kg/m3

CCCCCCCCCCn1cc[n+](C)c1.O=S(=O)([N-]S(=O)(=O)C(F)(F)F)C(F)(F)F
[1]
Details	mass density [kg/m3]
293.15 K	1282.4
303.15 K	1273.8
313.15 K	1265.3
323.15 K	1256.8
333.15 K	1248.3
343.15 K	1239.9
353.15 K	1231.4
363.15 K	1223.1

N#CC[n+]1ccccc1.O=S(=O)([N-]S(=O)(=O)C(F)(F)F)C(F)(F)F
[1]
Details	mass density [kg/m3]
293.15 K	1636.2
298.15 K	1631.2
303.15 K	1626.2
313.15 K	1616.2
323.15 K	1606.4
333.15 K	1596.8
343.15 K	1587.3
353.15 K	1577.7
363.15 K	1568.3

CCCCn1cc[n+](C)c1.F[B-](F)(F)F [1-butyl-3-methylimidazolium tetrafluoroborate]
[1]
Details	mass density
293.15 K	1203.8 kg/m3 and 1204.9 kg/m3
298.15 K	1200 kg/m3 and 1201.1 kg/m3
303.15 K	1196.2 kg/m3 and 1197.4 kg/m3
308.15 K	1192.4 kg/m3 and 1193.8 kg/m3
313.15 K	1188.9 kg/m3 and 1190.1 kg/m3
318.15 K	1185.4 kg/m3 and 1186.5 kg/m3
323.15 K	1181.3 kg/m3 and 1182.7 kg/m3
328.15 K	1177.9 kg/m3 and 1179 kg/m3
333.15 K	1174.1 kg/m3 and 1175.3 kg/m3
338.15 K	1170.5 kg/m3 and 1171.7 kg/m3
343.15 K	1166.9 kg/m3 and 1168 kg/m3

CCCC[N+]1(C)CCCC1.FC(F)(F)C(F)(F)[P-](F)(F)(F)(C(F)(F)C(F)(F)F)C(F)(F)C(F)(F)F
[1]
Details	mass density [kg/m3]
293.15 K	1588.1
303.15 K	1577.3
313.15 K	1566.8
323.15 K	1556.4
333.15 K	1545.9
343.15 K	1535.5
353.15 K	1525.1
363.15 K	1514.7

CCCCCCCCCCCCCC[P+](CCCCCC)(CCCCCC)CCCCCC.O=S(=O)([N-]S(=O)(=O)C(F)(F)F)C(F)(F)F + O
Details	mass density [kg/m3]
[2], 298.15 K, 100 kPa	1060.1

CCCCCC[n+]1ccn(C)c1.FC(F)(F)C(F)(F)[P-](F)(F)(F)(C(F)(F)C(F)(F)F)C(F)(F)C(F)(F)F
[1]
Details	mass density [kg/m3]
293.15 K	1557.1
298.15 K	1551.8
303.15 K	1546.4
313.15 K	1535.7
323.15 K	1525
333.15 K	1514.3
343.15 K	1503.6
353.15 K	1493
363.15 K	1482.4

CCCCn1cc[n+](C)c1.F[P-](F)(F)(F)(F)F [1-butyl-3-methylimidazolium hexafluorophosphate]
[1]
Details	mass density
293.15 K	1369.8 kg/m3 and 1368.1 kg/m3
298.15 K	1365.7 kg/m3 and 1364.1 kg/m3
303.15 K	1361.6 kg/m3 and 1360 kg/m3
308.15 K	1357.4 kg/m3 and 1355.7 kg/m3
313.15 K	1353.3 kg/m3 and 1351.8 kg/m3
318.15 K	1349.2 kg/m3 and 1347.5 kg/m3
323.15 K	1345.1 kg/m3 and 1343.5 kg/m3
328.15 K	1341 kg/m3 and 1339.4 kg/m3
333.15 K	1336.9 kg/m3 and 1335.2 kg/m3
338.15 K	1332.7 kg/m3 and 1331.1 kg/m3
343.15 K	1328.6 kg/m3 and 1327 kg/m3

CCCCn1cc[n+](C)c1.F[P-](F)(F)(F)(F)F [1-butyl-3-methylimidazolium hexafluorophosphate] + O
[2], 101 kPa
Details	mass density [kg/m3]
293.15 K	1367.5
298.15 K	1363.4
303.15 K	1359.2
308.15 K	1355.2
313.15 K	1351
318.15 K	1346.8
323.15 K	1342.4
328.15 K	1338.5
333.15 K	1334.4
338.15 K	1330.3
343.15 K	1326.2

CCCCCC[n+]1ccn(C)c1.O=S(=O)([N-]S(=O)(=O)C(F)(F)F)C(F)(F)F
[1]
Details	mass density [kg/m3]
293.15 K	1375.1
303.15 K	1366
313.15 K	1356.9
323.15 K	1347.9
333.15 K	1338.8
343.15 K	1329.8
353.15 K	1320.9
363.15 K	1311.9
